# ChEMBL document CHEMBL5321210, “N-adamantyl-anthranil amide derivatives: New selective ligands for the cannabinoid receptor subtype 2 (CB2R)” (Eur J Med Chem, 2023)
# Active and inactive are the calls of the source. The rule behind the calls is not given here.
# Key:
# [1] = test system: THP-1; experiment: Antiinflammatory activity in human THP-1 monocytes assessed as increase in IL-10 production at 10 uM incubated for 24 hrs by ELISA coupled qRT-PCR analysis; format: functional, cell-based
# [2] = test system: THP-1; experiment: Antiinflammatory activity in LPS-activated PMA-differentiated human THP-1 macrophages assessed as decrease in IFN-gamma production at 10 uM incubated for 24 hrs in the presence of JTE907 by ELISA coupled qRT-PCR analysis; format: functional, cell-based
# [3] = test system: THP-1; experiment: Antiinflammatory activity against LPS-activated human THP-1 monocytes assessed as decrease in IL-6 production at 10 uM incubated for 24 hrs in the presence of N-(adamantan-1-yl)-4-(pentylamino)-[1,1'-biphenyl]-3-carboxamide by ELISA coupled qRT-PCR analysis; format: functional, cell-based
# [4] = test system: THP-1; experiment: Antiinflammatory activity against LPS-activated PMA-differentiated human THP-1 monocytes assessed as decrease in TNF-alpha production at 10 uM incubated for 24 hrs in the presence of N-(adamantan-1-yl)-4-(pentylamino)-[1,1'-biphenyl]-3-carboxamide by ELISA coupled qRT-PCR analysis; format: functional, cell-based
# [5] = test system: THP-1; experiment: Antiinflammatory against LPS-activated human THP-1 monocytes assessed as increase in IL-4 production at 10 uM incubated for 24 hrs in the presence of JTE907 by ELISA coupled qRT-PCR analysis; format: functional, cell-based
# [6] = test system: THP-1; experiment: Antiinflammatory against LPS-activated human THP-1 monocytes assessed as increase in IL-10 production at 10 uM incubated for 24 hrs in the presence of JTE907 by ELISA coupled qRT-PCR analysis; format: functional, cell-based
# [7] = test system: THP-1; experiment: Antiinflammatory activity in LPS-activated PMA-differentiated human THP-1 macrophages assessed as decrease in IL-6 production at 10 uM incubated for 24 hrs in the presence of JTE907 by ELISA coupled qRT-PCR analysis; format: functional, cell-based
# [8] = test system: THP-1; experiment: Antiinflammatory activity in PMA-differentiated human THP-1 macrophages assessed as increase in IL-4 production at 10 uM incubated for 24 hrs by ELISA coupled qRT-PCR analysis; format: functional, cell-based
# [9] = test system: THP-1; experiment: Antiinflammatory activity in LPS-activated PMA-differentiated human THP-1 macrophages assessed as increase in IL-10 production at 10 uM incubated for 24 hrs in the presence of JTE907 by ELISA coupled qRT-PCR analysis; format: functional, cell-based
# [10] = test system: THP-1; experiment: Antiinflammatory activity in human THP-1 monocytes assessed as decrease in IFN-gamma production at 10 uM incubated for 24 hrs in the presence of N-(adamantan-1-yl)-4-(pentylamino)-[1,1'-biphenyl]-3-carboxamide by ELISA coupled qRT-PCR analysis; format: functional, cell-based
# [11] = test system: THP-1; experiment: Antiinflammatory activity in PMA-differentiated human THP-1 macrophages assessed as decrease in IL-6 production at 10 uM incubated for 24 hrs in the presence of JTE907 by ELISA coupled qRT-PCR analysis; format: functional, cell-based
# [12] = test system: THP-1; experiment: Antiinflammatory activity in PMA-differentiated human THP-1 monocytes assessed as decrease in TNF-alpha production at 10 uM incubated for 24 hrs in the presence of N-(adamantan-1-yl)-4-(pentylamino)-[1,1'-biphenyl]-3-carboxamide by ELISA coupled qRT-PCR analysis; format: functional, cell-based
# [13] = test system: THP-1; experiment: Antiinflammatory activity in LPS-activated PMA-differentiated human THP-1 macrophages assessed as increase in IL-4 production at 10 uM incubated for 24 hrs in the presence of JTE907 by ELISA coupled qRT-PCR analysis; format: functional, cell-based
# [14] = test system: THP-1; experiment: Antiinflammatory against LPS-activated human THP-1 monocytes assessed as decrease in TNF-alpha production at 10 uM incubated for 24 hrs in the presence of JTE907 by ELISA coupled qRT-PCR analysis; format: functional, cell-based
# [15] = test system: THP-1; experiment: Antiinflammatory activity against LPS-activated human THP-1 monocytes assessed as decrease in IL-1beta production at 10 uM incubated for 24 hrs in the presence of N-(adamantan-1-yl)-4-(pentylamino)-[1,1'-biphenyl]-3-carboxamide by ELISA coupled qRT-PCR analysis; format: functional, cell-based
# [16] = test system: THP-1; experiment: Antiinflammatory activity against LPS-activated PMA-differentiated human THP-1 macrophages assessed as decrease in IL-1beta production at 10 uM incubated for 24 hrs by ELISA coupled qRT-PCR analysis relative to control; format: functional; parameters: scale not given: the % may be the effect or the level left
# [17] = test system: THP-1; experiment: Antiinflammatory activity against LPS-activated PMA-differentiated human THP-1 macrophages assessed as decrease in IL-6 production at 10 uM incubated for 24 hrs by ELISA coupled qRT-PCR analysis relative to control; format: functional; parameters: scale not given: the % may be the effect or the level left
# [18] = test system: THP-1; experiment: Antiinflammatory activity in PMA-differentiated human THP-1 macrophages assessed as increase in IL-10 production at 1 to 10 uM incubated for 24 hrs in the presence of JTE907 by ELISA coupled qRT-PCR analysis; format: functional, cell-based; conditions: dose 1-10 µM
# [19] = test system: THP-1; experiment: Antiinflammatory activity in LPS-activated PMA-differentiated human THP-1 macrophages assessed as increase in IL-10 production at 1 to 10 uM incubated for 24 hrs in the presence of JTE907 by ELISA coupled qRT-PCR analysis; format: functional, cell-based; conditions: dose 1-10 µM
# [20] = test system: THP-1; experiment: Antiinflammatory activity against LPS-activated PMA-differentiated human THP-1 macrophages assessed as decrease in IL-6 production at 1 to 10 uM incubated for 24 hrs by ELISA coupled qRT-PCR analysis relative to control; format: functional; parameters: scale not given: the % may be the effect or the level left; conditions: dose 1-10 µM
# [21] = test system: THP-1; experiment: Antiinflammatory activity in human THP-1 monocytes assessed as decrease in IFN-gamma production at 1 to 10 uM incubated for 24 hrs in the presence of JTE907 by ELISA coupled qRT-PCR analysis; format: functional, cell-based; conditions: dose 1-10 µM
# [22] = test system: THP-1; experiment: Antiinflammatory activity in PMA-differentiated human THP-1 macrophages assessed as increase in IL-10 production at 1 to 10 uM incubated for 24 hrs by ELISA coupled qRT-PCR analysis; format: functional, cell-based; conditions: dose 1-10 µM
# [23] = test system: THP-1; experiment: Antiinflammatory activity against LPS-activated PMA-differentiated human THP-1 macrophages assessed as decrease in IFN-gamma production at 1 to 10 uM incubated for 24 hrs by ELISA coupled qRT-PCR analysis relative to control; format: functional; parameters: scale not given: the % may be the effect or the level left; conditions: dose 1-10 µM
# [24] = test system: THP-1; experiment: Antiinflammatory activity in human THP-1 monocytes assessed as decrease in IL-1beta production incubated for 24 hrs by ELISA coupled qRT-PCR analysis; format: functional, cell-based; conditions: dose 1-10 µM
# [25] = test system: THP-1; experiment: Antiinflammatory activity in human THP-1 monocytes assessed as decrease in IL-6 production incubated for 24 hrs by ELISA coupled qRT-PCR analysis; format: functional, cell-based; conditions: dose 1-10 µM
# [26] = test system: THP-1; experiment: Antiinflammatory activity against LPS-activated PMA-differentiated human THP-1 macrophages assessed as increase in IL-10 production at 1 to 10 uM incubated for 24 hrs by ELISA coupled qRT-PCR analysis; format: functional, cell-based; conditions: dose 1-10 µM
# [27] = test system: THP-1; experiment: Antiinflammatory activity in human THP-1 monocytes assessed as increase in IL-10 production incubated for 24 hrs by ELISA coupled qRT-PCR analysis; format: functional, cell-based; conditions: dose 1-10 µM
# [28] = molecular target: Cannabinoid receptor 2 (Homo sapiens, UniProt P34972); experiment: Displacement of [3H]-CP55940 from human CB2 receptor expressed in HEK293 cell membrane assessed as inhibition constant incubated for 90 mins by radioligand competition binding assay; format: cell membranes
# Sequence of Cannabinoid receptor 2 (P34972 whole entry): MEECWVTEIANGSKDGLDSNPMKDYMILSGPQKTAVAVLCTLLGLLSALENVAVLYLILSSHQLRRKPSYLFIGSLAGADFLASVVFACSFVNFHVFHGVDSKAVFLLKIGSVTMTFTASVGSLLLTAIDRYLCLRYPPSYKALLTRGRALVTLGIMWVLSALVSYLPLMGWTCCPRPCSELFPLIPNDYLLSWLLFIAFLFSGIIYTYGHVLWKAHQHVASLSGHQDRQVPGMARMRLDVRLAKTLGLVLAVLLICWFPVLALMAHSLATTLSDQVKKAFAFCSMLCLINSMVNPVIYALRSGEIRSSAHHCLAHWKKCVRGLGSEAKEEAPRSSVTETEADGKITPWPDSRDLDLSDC
structure (smiles),measurement,setting,value
O=C(NC1CCCCC1)c1cn(CCN2CCOCC2)c2cc(Cl)ccc2c1=O,Activity,[1],Active
same,Activity,[2],inactive
same,Activity,[3],inactive
same,Activity,[4],inactive
same,Activity,[5],inactive
same,Activity,[6],inactive
same,Activity,[7],inactive
same,Activity,[8],Active
same,Activity,[9],inactive
same,Activity,[10],inactive
same,Activity,[11],inactive
same,Activity,[12],inactive
same,Activity,[13],inactive
same,Activity,[14],inactive
same,Activity,[15],inactive
same,Activity,[16],70%
same,Activity,[17],70%
CCCCCNc1ccccc1C(=O)NC12CC3CC(CC(C3)C1)C2,Activity,[18],inactive
same,Activity,[19],inactive
same,Activity,[20],70%
same,Activity,[21],inactive
same,Activity,[22],Active
same,Activity,[23],70%
same,Activity,[24],Dose-Dependent Effect
same,Activity,[25],Dose-Dependent Effect
same,Activity,[26],Active
same,Activity,[27],Dose-Dependent Effect
same,Ki,[28],55.7 nM
